Key:
[1] = test system: Apoe-/- mice; assay: High cholesterol diet-induced atherosclerosis in Apoe-/- mice; assay type: in vivo, mouse
Experimental: C57BL/6J (N000013, Gempharmatech, Nanjing, Jiangsu, China) and Apoe^-/- (T001458, Gempharmatech, Nanjing, Jiangsu, China) mice were employed. […] Alipoprotein E knockout (Apoe^-/-) mice were subjected to a 1.25% high cholesterol diet (#D12108C, RESEARCH DIETS, New Brunswick, NJ, USA). After 7 weeks of atherosclerosis induction, intraperitoneal injection of ISOGK (20 mg/kg/day) was initiated and continued for additional 8 weeks. Upon reaching the designated experimental endpoint, blood was collected retro-orbitally, and serum was isolated for subsequent biochemical parameter analysis. Subsequently, the aorta and heart tissues were processed. The aorta was subjected to Oil Red O staining (#G1260, SolarBio, Beijing, China) for en face examination, and cryosections of the aortic sinus were prepared for analysis as we previously described. The serum lipid profile was evaluated utilizing colorimetric kits from Leidu Biotech (Shenzhen, China). Liver samples were gathered, processed into a homogenate, and then centrifuged. The resulting transparent supernatant was utilized for assessing hepatic triglyceride (TG) and total cholesterol (TC) concentrations using kits obtained from commercial sources (290-63701 for TG, 294-65801 for TC; Wako, Tokyo, Japan and E-BC-K261-M for TG, E-BC-K109-M for TC; Elabscience, Wuhan, China). The levels of TG and TC were normalized against the weight of the liver tissue. Kits for antioxidant-related indicators, including GSH (S0059S, Beyotime, Shanghai, China), MDA (S0131S, Beyotime, Shanghai, China), SOD (S0101S, Beyotime, Shanghai, China), and ox-LDL (CSB-E07933m, CUSABIO, Beijing, China), were detected in mouse serum. Acly^flox/flox mice were sourced from the Shanghai Model Organisms Center (no. NM-CKO-200076). The Institutional Animal Care and Use Committee of the University of Science and Technology of China (USTC) approved all animal care procedures (approval number USTCACUC27120124102, USTCACUC212401038).
Plasma levels of TC, TG, LDL-C, and high-density lipoprotein cholesterol (HDL-C) were determined following the manufacturer's instructions. Liver tissues (30-40 mg) were homogenized in 0.5 mL of cold PBS for hepatic TG and cholesterol measurement. A 0.4 mL homogenate was combined with 1.4 mL of a CHCl3/CH3OH mixture (2:1, v/v) and shaken overnight at room temperature. Following centrifugation at 2,500 × g for a period of 10 min, the organic phase was meticulously transferred and permitted to air-dry. The residual organic material was then reconstituted in 800 μL of ethanol containing 1% Triton X-100, whereby the ethanol served to solubilize the material.
Fast protein liquid chromatography (FPLC) was employed to analyze plasma lipoproteins using 200 μL of pooled plasma samples. The samples were initially filtered through 0.22-µm filters and subsequently loaded onto Tricorn high-performance Superose S-6 10/300GL columns (Amersham Biosciences). Elution was conducted with PBS at a constant flow rate of 0.25 mL/min. The eluted fractions (500 μL each) were subjected to analysis for TG and TC concentrations using the aforementioned commercial assay kits.
Cytokines, including C-reactive protein (CRP) (RK04303, ABclonal, Guangzhou, China), interleukin-1 beta (IL-1 β) (RK00006, ABclonal, Guangzhou, China), and interleukin-6 (IL-6) (RK00008, ABclonal, Guangzhou, China), were extracted from mouse serum and analyzed using enzyme-linked immunosorbent assay (ELISA) kits. All procedures were conducted in accordance with the instructions provided by the manufacturers.
Tissue slides from the male Apoe^-/- mice aortic sinus was washed with PBS and then permeabilized in a solution of PBS with 0.3% BSA and 0.03% Triton X-100 for 1 h at room temperature. These sections were subsequently incubated overnight with primary antibodies at a 1:400 dilution, followed by a 1-h incubation with Alexa Fluor 488 or 546-conjugated sary antibodies at a 1:2000 dilution, also at room temperature. […]

[2] = test system: primary mouse hepatocytes (PMH); assay: Nile red staining of PMH from Acly flox/flox mice infected with Cre adenovirus; assay type: cell-based; conditions: 5 µM, 12 h
Experimental: For the Nile Red staining procedure, primary mouse hepatocytes were treated with IOSGK at varying concentrations for a period of 12 h. Subsequently, the cells were fixed with 4% paraformaldehyde (PFA) and stained with Nile Red ([…], Invitrogen, Carlsbad, CA, USA). The intracellular accumulation of lipids was visualized and quantified using a laser scanning confocal microscope (TCS SP8; Leica, Wetzlar, Germany). Male and female Acly^flox/flox mice were used to isolate PMH and infected with adenovirus vectors carrying either Cre or GFP for 24 h.

[3] = 20 mg/kg/day i.p., 8 weeks, male or female Apoe-/- mice
[4] = female Apoe-/- mice, 20 mg/kg/day, 8 weeks
[5] = male Apoe-/- mice, 20 mg/kg/day, 8 weeks

Compound: COc1ccc(-c2cc(=O)c3c(O)cc(O)c(-c4cc(-c5cc(=O)c6c(O)cc(O)cc6o5)ccc4OC)c3o2)cc1 [ISOGK, Isoginkgetin]
- body weight vs vehicle [1, 3]: No significant changes in body weight
- serum ALT and AST [1, 3]: no significant changes
- liver H&E and Sirius red staining ([1]; 20 mg/kg/day, 8 weeks, Apoe-/- mice): no substantial pathological alterations
- necrotic core area in aortic sinus (H&E) ([1]; Apoe-/- mice, 20 mg/kg/day, 8 weeks): notable reduction in the necrotic core area
- oxidative stress markers in serum (GSH, MDA, SOD, ox-LDL) ([1]; Apoe-/- mice, 8 weeks): no significant alterations
- LDLR and ACLY protein expression in liver tissues ([1]; Apoe-/- mice, Western blot): no significant change in either LDLR or ACLY protein expression
- TG levels in serum and liver tissue ([1]; Apoe-/- mice, irrespective of gender): notable decline in TG levels
- serum LDL-C and HDL-C ([1]; female Apoe-/- mice): remained unchanged
- decrease in aortic sinus lesion area (ORO) vs vehicle [1, 4]: 45.74%
- decrease in liver tissue TC [1, 4]: 32.34%
- decrease in serum TC [1, 4]: 24.24%
- reduction of en face aortic lesion area (ORO) vs vehicle [1, 4]: 3.88%
- TG and cholesterol carried in VLDL particles (FPLC) ([1]; female Apoe-/- mice, pooled plasma): significant reduction
- serum LDL-C ([1]; male Apoe-/- mice): decreased the serum levels of LDL-C
- content of macrophages in the aortic sinus (immunofluorescence) [1, 5]: substantial decline
- content of smooth muscle cells and endothelial cells in the aortic sinus [1, 5]: remained unaltered
- decrease in aortic sinus lesion area (ORO) vs vehicle [1, 5]: 46.35%
- decrease in liver tissue TC [1, 5]: 29.98%
- decrease in serum TC [1, 5]: 27.15%
- expression of cholesterol efflux genes in the liver ([1]; male Apoe-/- mice, qRT-PCR): no significant differences
- serum CRP, IL-1β and IL-6 (ELISA) ([1]; male or female Apoe-/- mice, vehicle vs ISOGK): no statistically significant differences
- lipid deposition in PMH when ACLY abrogated or depleted (Nile red) [2]: did not further diminish lipid deposition

Reference: PMC11984407, “A natural small molecule isoginkgetin alleviates hypercholesterolemia and atherosclerosis by targeting ACLY” (Theranostics, 2025)
